Test results published in paper PMC6934184, “Selective DNA-PKcs inhibition extends the therapeutic index of localized radiotherapy and chemotherapy” (The Journal of Clinical Investigation, 2019).

Target: T1, RPS6KA1 (RSK1) (Homo sapiens, UniProt Q15418)
T1 construct: purchased Thermo Fisher Scientific (Life Technologies) SelectScreen
Assay: SelectScreen Z'LYTE
Assay type: biochemical
In short: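 NU5455 was profiled across the SelectScreen Broad panel of kinase activity and binding assays. Z'LYTE reactions such as CSF1R ran at apparent Km ATP, while the Adapta CAMK1 assay used ATP listed as 10. Values are given as percent.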

T1 sequence (Q15418 whole entry): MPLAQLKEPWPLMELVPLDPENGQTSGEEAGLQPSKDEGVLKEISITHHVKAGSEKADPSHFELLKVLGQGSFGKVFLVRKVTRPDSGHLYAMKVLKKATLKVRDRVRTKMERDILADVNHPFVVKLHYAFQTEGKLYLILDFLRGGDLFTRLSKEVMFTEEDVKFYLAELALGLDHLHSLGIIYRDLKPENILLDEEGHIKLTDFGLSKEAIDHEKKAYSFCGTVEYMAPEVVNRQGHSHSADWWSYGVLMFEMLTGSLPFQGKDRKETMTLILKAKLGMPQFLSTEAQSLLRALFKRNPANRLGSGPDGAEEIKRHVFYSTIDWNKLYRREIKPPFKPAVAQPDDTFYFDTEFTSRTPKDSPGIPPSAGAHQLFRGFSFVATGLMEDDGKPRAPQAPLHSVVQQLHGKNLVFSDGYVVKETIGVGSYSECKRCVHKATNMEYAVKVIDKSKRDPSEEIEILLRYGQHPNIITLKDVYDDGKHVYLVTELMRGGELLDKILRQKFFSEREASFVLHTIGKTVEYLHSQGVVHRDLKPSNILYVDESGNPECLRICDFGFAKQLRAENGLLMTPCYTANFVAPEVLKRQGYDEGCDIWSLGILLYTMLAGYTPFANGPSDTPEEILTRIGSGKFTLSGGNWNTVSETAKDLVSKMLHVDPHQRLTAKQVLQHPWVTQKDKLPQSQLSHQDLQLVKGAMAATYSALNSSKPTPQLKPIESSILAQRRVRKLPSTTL

CN(C(=O)CN1CCOCC1)c1ccc2sc3c(-c4cccc5c(=O)cc(N6CC7CCC(C6)O7)oc45)cccc3c2c1 [NU5455]
inhibition at 1 µM: 5.7%
